Patent US12152038B2, “Vasopressin receptor antagonists and products and methods related thereto” (Neumora Therapeutics, Inc., priority 2017, dated 2024)
Values belong to the molecule of their own block, whether it stands above or below them.

Tests used:
[1] = target: T1, human Arginine Vasopressin Receptor 1a (AVPR1a) (Homo sapiens, UniProt P37288); test: Vasopressin V1a receptor antagonist assay (FLIPR calcium, CHO-AVPR1a cells); format: cell-based
T1 construct: expressed in transfected cells; host or cells: CHO (CHO-AVPR1a, kept under G418 selection)
Procedure, shortened: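 CHO cells expressing human AVPR1a were loaded with Calcium-6 dye and preincubated with compound for 15 min at 37° C. Cells were then challenged with AVP at its daily-determined EC80, and FLIPR fluorescence was read. Compounds were tested in duplicate as 10-point 1:3 dilutions from a top final concentration of 3 μM.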

[2] = target: T2, human Oxytocin Receptor (hOTR) (Homo sapiens, UniProt P30559); test: Oxytocin receptor (OTR) antagonist assay (FLIPR calcium, CHEM-1-hOTR cells); format: cell-based
T2 construct: host or cells: CHEM-1 (ready-to-assay frozen cells)
T2 sequence (P30559 1-389): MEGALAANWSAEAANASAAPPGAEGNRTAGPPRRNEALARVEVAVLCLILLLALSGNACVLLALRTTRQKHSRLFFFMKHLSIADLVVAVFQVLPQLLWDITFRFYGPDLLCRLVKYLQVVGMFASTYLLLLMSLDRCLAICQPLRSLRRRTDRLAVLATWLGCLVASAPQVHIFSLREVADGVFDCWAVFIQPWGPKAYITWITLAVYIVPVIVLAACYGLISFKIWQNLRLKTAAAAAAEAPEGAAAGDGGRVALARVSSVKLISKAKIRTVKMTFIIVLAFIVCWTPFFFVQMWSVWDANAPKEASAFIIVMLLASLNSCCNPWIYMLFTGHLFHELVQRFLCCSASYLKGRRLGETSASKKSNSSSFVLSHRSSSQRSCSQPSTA
Procedure, shortened: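 CHEM-1 cells expressing human OTR were loaded with Calcium-6 dye in HBSS/20 mM HEPES and preincubated with compound (10-point, 1:3 series) for 15 min at 37° C. Cells were then challenged with oxytocin at its daily-determined EC80. Calcium fluorescence was read on FLIPR for 3 min after each addition.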

T1 sequence (P37288 whole entry): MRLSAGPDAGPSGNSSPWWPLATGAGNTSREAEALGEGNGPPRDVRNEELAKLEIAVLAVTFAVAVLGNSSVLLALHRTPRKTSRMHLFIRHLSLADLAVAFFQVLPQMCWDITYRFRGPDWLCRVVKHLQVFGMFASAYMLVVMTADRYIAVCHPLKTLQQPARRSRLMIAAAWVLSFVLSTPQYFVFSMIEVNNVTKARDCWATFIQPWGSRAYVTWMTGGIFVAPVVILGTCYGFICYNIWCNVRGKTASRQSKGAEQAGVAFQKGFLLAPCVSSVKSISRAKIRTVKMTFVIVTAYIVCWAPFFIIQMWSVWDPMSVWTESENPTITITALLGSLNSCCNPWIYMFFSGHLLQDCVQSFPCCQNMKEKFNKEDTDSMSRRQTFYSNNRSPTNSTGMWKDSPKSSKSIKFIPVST

Compound: O=C(N1CC2(C1)CN(c1ccc(F)cn1)C2)N1CCOc2cc(F)ccc21 [1-64]
IC50 [1]: < 100 nM

Compound: COc1ccc2c(c1)OCC(C)N2C(=O)N1CC2(C1)CN(c1ccc(F)cn1)C2 (single isomer, unassigned) [1-59-B]
IC50 [1]: < 100 nM
IC50 [2]: 100 to 500 nM

Compound: CC1COc2cc(Cl)ccc2N1C(=O)N1CC2(C1)CN(c1ncccc1F)C2 (single isomer, unassigned) [1-57-A]
IC50 [1]: < 100 nM

Compound: N#Cc1cccc(N2CC3(CN(C(=O)N4CCOc5cc(Cl)ccc54)C3)C2)n1 [1-39]
IC50 [1]: < 100 nM
IC50 [2]: 100 to 500 nM

Compound: Cc1cc(F)nc(N2CC3(CN(C(=O)N4CCOc5cc(Cl)ccc54)C3)C2)c1 [1-45]
IC50 [1]: < 100 nM

Compound: CC1COc2cc(F)ccc2N1C(=O)N1CC2(C1)CN(c1ncccc1F)C2 (single isomer, unassigned) [1-67-A]
IC50 [1]: < 100 nM
IC50 [2]: 100 to 500 nM

Compound: N#Cc1ccnc(N2CC3(CN(C(=O)N4CCOc5cc(Cl)ccc54)C3)C2)c1 [1-53]
IC50 [1]: < 100 nM

Compound: O=C(N1CC2(C1)CN(c1cc(F)cc(F)n1)C2)N1CCOc2cc(Cl)ccc21 [1-51]
IC50 [1]: < 100 nM
IC50 [2]: ≥ 1000 nM

Compound: CC1COc2cc(Cl)ccc2N1C(=O)N1CC2(C1)CN(c1cnccn1)C2 (single isomer, unassigned) [1-58-B]
IC50 [1]: < 100 nM
IC50 [2]: < 100 nM

Compound: O=C(N1CC2(C1)CN(c1ccc(F)c(F)n1)C2)N1CCOc2cc(Cl)ccc21 [1-49]
IC50 [1]: < 100 nM

Compound: CC1COc2cc(Cl)ccc2N1C(=O)N1CC2(C1)CN(c1ccccn1)C2 (centres unmarked) [1-60]
IC50 [1]: < 100 nM
IC50 [2]: < 100 nM

Compound: CCC1COc2cc(Cl)ccc2N1C(=O)N1CC2(C1)CN(c1ccc(F)cn1)C2 (single isomer, unassigned) [1-55-B]
IC50 [1]: < 100 nM
IC50 [2]: < 100 nM

Compound: Cc1nc(N2CC3(CN(C(=O)N4CCOc5cc(Cl)ccc54)C3)C2)ccc1F [1-30]
IC50 [1]: < 100 nM
IC50 [2]: 500 to 1000 nM

Compound: CC1COc2cc(F)ccc2N1C(=O)N1CC2(C1)CN(c1cnccn1)C2 (single isomer, unassigned) [1-65-B]
IC50 [1]: < 100 nM
IC50 [2]: 100 to 500 nM

Compound: O=C(N1CC2(C1)CN(c1cnc(F)cn1)C2)N1CCOc2cc(Cl)ccc21 [1-18]
IC50 [1]: < 100 nM

Compound: Cc1cncc(N2CC3(CN(C(=O)N4CCOc5cc(Cl)ccc54)C3)C2)n1 [1-22]
IC50 [1]: < 100 nM
IC50 [2]: ≥ 1000 nM

Compound: Cc1cccc(N2CC3(CN(C(=O)N4CCOc5cc(Cl)ccc54)C3)C2)n1 [1-3]
IC50 [1]: < 100 nM
IC50 [2]: 500 to 1000 nM

Compound: COc1nccnc1N1CC2(CN(C(=O)N3CCOc4cc(Cl)ccc43)C2)C1 [1-43]
IC50 [1]: < 100 nM

Compound: CC1COc2cc(F)ccc2N1C(=O)N1CC2(C1)CN(c1ccccn1)C2 (single isomer, unassigned) [1-66-B]
IC50 [1]: < 100 nM
IC50 [2]: 100 to 500 nM

Compound: CC1COc2cc(Cl)ccc2N1C(=O)N1CC2(C1)CN(c1ccccn1)C2 (single isomer, unassigned) [1-60-B]
IC50 [1]: < 100 nM
IC50 [2]: < 100 nM

Compound: Cc1cnc(N2CC3(CN(C(=O)N4CCOc5cc(Cl)ccc54)C3)C2)cn1 [1-20]
IC50 [1]: < 100 nM

Compound: CC1COc2cc(F)ccc2N1C(=O)N1CC2(C1)CN(c1ncccc1F)C2 (centres unmarked) [1-67]
IC50 [1]: < 100 nM
IC50 [2]: 100 to 500 nM

The remaining lines, values ahead:

IC50 [1]: < 100 nM
IC50 [2]: < 100 nM
Compound: Cc1cncc(N2CC3(CN(C(=O)N4c5ccc(Cl)cc5OCC4C)C3)C2)n1 (centres unmarked) [21-3]

IC50 [1]: < 100 nM
Compound: O=C(N1CC2(C1)CN(c1cccnc1)C2)N1CCOc2cc(Cl)ccc21 [1-72]

IC50 [1]: < 100 nM
IC50 [2]: < 100 nM
Compound: CC1COc2cc(Cl)ccc2N1C(=O)N1CC2(C1)CN(c1ccc(F)cn1)C2 (single isomer, unassigned) [1-73-B]

IC50 [1]: < 100 nM
IC50 [2]: 100 to 500 nM
Compound: CC1COc2cc(Cl)ccc2N1C(=O)N1CC2(C1)CN(c1ncccc1C#N)C2 (centres unmarked) [21-2]

IC50 [1]: < 100 nM
IC50 [2]: ≥ 1000 nM
Compound: O=C(N1CC2(C1)CN(c1cc(F)ccn1)C2)N1CCOc2cc(Cl)ccc21 [1-70]

IC50 [1]: < 100 nM
IC50 [2]: 100 to 500 nM
Compound: CC1COc2cc(Cl)ccc2N1C(=O)N1CC2(C1)CN(c1ccncn1)C2 (centres unmarked) [21-6]

IC50 [1]: < 100 nM
IC50 [2]: 500 to 1000 nM
Compound: CC1COc2cc(Cl)ccc2N1C(=O)N1CC2(C1)CN(c1noc3ccccc13)C2 (centres unmarked) [21-1, (6-(benzo[d]isoxazol-3-yl)-2,6-diazaspiro[3.3]heptan-2-yl)(7-chloro-3-methyl-2,3-dihydro-4H-benzo[b][1,4]oxazin-4-yl)methanone]

IC50 [1]: < 100 nM
IC50 [2]: ≥ 1000 nM
Compound: CCc1cnc(N2CC3(CN(C(=O)N4c5ccc(Cl)cc5OCC4C)C3)C2)nc1 (centres unmarked) [21-9]

IC50 [1]: < 100 nM
Compound: Cc1cc(N2CC3(CN(C(=O)N4c5ccc(Cl)cc5OCC4C)C3)C2)ncn1 (centres unmarked) [21-11]

IC50 [1]: < 100 nM
IC50 [2]: 100 to 500 nM
Compound: CC1COc2cc(Cl)ccc2N1C(=O)N1CC2(C1)CN(c1ncncc1F)C2 (centres unmarked) [21-5]

IC50 [1]: < 100 nM
Compound: COc1ccc(N2CC3(CN(C(=O)N4CCOc5cc(Cl)ccc54)C3)C2)nc1 [1-68]

IC50 [1]: < 100 nM
IC50 [2]: 500 to 1000 nM
Compound: CC1COc2cc(Cl)ccc2N1C(=O)N1CC2(C1)CN(c1nn(C)c3ncccc13)C2 (single isomer, unassigned) [20-15-B]

IC50 [1]: < 100 nM
IC50 [2]: 500 to 1000 nM
Compound: Cc1cnnc(N2CC3(CN(C(=O)N4c5ccc(Cl)cc5OCC4C)C3)C2)c1 (centres unmarked) [21-4]

IC50 [1]: < 100 nM
Compound: CC1COc2cc(Cl)ccc2N1C(=O)N1CC2(C1)CN(c1ccc(F)cn1)C2 (single isomer, unassigned) [1-73-A]

IC50 [1]: < 100 nM
IC50 [2]: ≥ 1000 nM
Compound: O=C(N1CC2(C1)CN(c1cccc(F)n1)C2)N1CCOc2cc(Cl)ccc21 [1-69]

IC50 [2]: ≥ 1000 nM
Compound: O=C(N1CC2(C1)CN(c1ccc(F)cn1)C2)N1CCC(O)c2cc(Cl)ccc21 (single isomer, unassigned) [13-1-B]

IC50 [1]: < 100 nM
IC50 [2]: 100 to 500 nM
Compound: Cc1nccc(N2CC3(CN(C(=O)N4c5ccc(Cl)cc5OCC4C)C3)C2)n1 (centres unmarked) [21-8]

IC50 [1]: < 100 nM
Compound: Cc1cnc(N2CC3(CN(C(=O)N4c5ccc(Cl)cc5OCC4C)C3)C2)nc1 (single isomer, unassigned) [20-13-B]

IC50 [1]: < 100 nM
Compound: CC1COc2cc(Cl)ccc2N1C(=O)N1CC2(C1)CN(c1cc(=O)n(C)cn1)C2 (single isomer, unassigned) [20-14-B]

IC50 [1]: < 100 nM
Compound: O=C(N1CC2(C1)CN(c1cccnn1)C2)N1CCOc2cc(Cl)ccc21 [1-71]

IC50 [1]: < 100 nM
IC50 [2]: 500 to 1000 nM
Compound: CC1COc2cc(Cl)ccc2N1C(=O)N1CC2(C1)CN(c1nccc(C(F)(F)F)n1)C2 (centres unmarked) [21-10]

IC50 [2]: 100 to 500 nM
Compound: CC1COc2cc(Cl)ccc2N1C(=O)N1CC2(C1)CN(c1ncc(F)cn1)C2 (single isomer, unassigned) [18-2-B]
